pIC50: −log10 of the molar value.
Legend:
[1] = biological target: T1, Prostaglandin G/H synthase 2 (Homo sapiens, UniProt P35354); type: tissue-based, Blood
T1 sequence (P35354 whole entry): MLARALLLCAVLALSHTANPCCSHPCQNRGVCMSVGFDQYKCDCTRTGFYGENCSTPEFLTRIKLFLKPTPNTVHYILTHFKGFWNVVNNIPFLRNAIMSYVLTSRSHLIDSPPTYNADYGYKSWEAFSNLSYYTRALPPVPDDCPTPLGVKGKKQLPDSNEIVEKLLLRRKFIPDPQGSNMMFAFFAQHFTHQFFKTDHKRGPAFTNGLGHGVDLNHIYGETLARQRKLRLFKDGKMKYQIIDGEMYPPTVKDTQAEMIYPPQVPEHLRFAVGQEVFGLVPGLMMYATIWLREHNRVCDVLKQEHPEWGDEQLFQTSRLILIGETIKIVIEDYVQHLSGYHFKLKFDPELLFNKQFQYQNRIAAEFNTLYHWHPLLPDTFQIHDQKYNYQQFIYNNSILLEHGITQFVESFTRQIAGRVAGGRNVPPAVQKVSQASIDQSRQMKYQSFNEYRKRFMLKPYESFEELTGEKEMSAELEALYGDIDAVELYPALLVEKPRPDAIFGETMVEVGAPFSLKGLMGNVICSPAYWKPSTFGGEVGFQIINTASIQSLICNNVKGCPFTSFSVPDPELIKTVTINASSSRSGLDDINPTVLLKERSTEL
Description: In vitro inhibitory concentration against Prostaglandin G/H synthase 2 in human whole blood assay

[2] = biological target: Prostaglandin G/H synthase 1 (Homo sapiens, UniProt P23219); test: In vitro inhibitory concentration against Prostaglandin G/H synthase 1 in human whole blood assay; type: tissue-based
Chain of Prostaglandin G/H synthase 1 (P23219 whole entry): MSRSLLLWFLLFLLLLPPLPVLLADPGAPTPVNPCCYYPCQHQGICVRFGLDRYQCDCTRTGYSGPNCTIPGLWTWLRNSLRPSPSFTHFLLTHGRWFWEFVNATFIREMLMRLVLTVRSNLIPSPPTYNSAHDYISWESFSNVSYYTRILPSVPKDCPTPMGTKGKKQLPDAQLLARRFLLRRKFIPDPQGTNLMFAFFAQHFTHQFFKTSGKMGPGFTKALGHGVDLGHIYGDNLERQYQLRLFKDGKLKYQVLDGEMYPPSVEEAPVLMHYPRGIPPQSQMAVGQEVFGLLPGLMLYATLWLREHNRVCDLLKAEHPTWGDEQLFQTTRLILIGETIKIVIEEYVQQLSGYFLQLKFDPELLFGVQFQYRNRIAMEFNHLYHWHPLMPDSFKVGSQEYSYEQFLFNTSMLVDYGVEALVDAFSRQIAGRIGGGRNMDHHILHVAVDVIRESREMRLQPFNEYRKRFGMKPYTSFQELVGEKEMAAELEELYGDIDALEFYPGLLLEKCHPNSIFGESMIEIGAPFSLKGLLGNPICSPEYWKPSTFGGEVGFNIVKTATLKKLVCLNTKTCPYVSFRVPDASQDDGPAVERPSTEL

| pIC50 [1] | pIC50 [2] | Structure (SMILES) |
| --- | --- | --- |
| < 4.00 | < 4.00 | Cc1cc(C)c(S(N)(=O)=O)c(C)c1-c1noc(C)c1-c1ccccc1 |
| < 4.00 | < 4.00 | Cc1onc(-c2ccc(Cl)o2)c1-c1ccc(S(N)(=O)=O)cc1 |
| < 4.00 | < 4.00 | COc1cc(OC)c(-c2noc(C)c2-c2ccccc2)c(OC)c1 |
| < 4.00 | < 4.00 | COc1cc(OC)c(-c2noc(C)c2-c2ccc(S(N)(=O)=O)cc2)c(OC)c1Cl |
| < 4.00 | < 4.00 | COc1cc(OC)c(-c2noc(C)c2-c2ccccc2)c(OC)c1Cl |
| < 4.00 | < 4.00 | Cc1cc(C)c(S(N)(=O)=O)c(C)c1-c1noc(C)c1-c1ccc(S(N)(=O)=O)cc1 |
| < 4.00 | – | Cc1onc(-c2ccc(Cl)o2)c1-c1ccccc1 |
| < 4.00 | < 4.00 | Cc1cc(C)c(-c2noc(C)c2-c2ccccc2)c(C)c1 |

— ChEMBL document CHEMBL1138763 (J Med Chem, 2004)
